One compound from PMC6156508, “GA-Hecate antiviral properties on HCV whole cycle represent a new antiviral class and open the door for the development of broad spectrum antivirals” (Scientific Reports, 2018) can be followed below.

pEC50: −log10 of the molar value. Like-named read-outs stand apart in the source and are kept apart here. Where a SMILES comes first, the peptide text is derived from it. The star is where a group is joined. Galloyl = O=C(c1cc(O)c(O)c(O)c1)*

Experiment [1] concerns lipid droplets in HCVcc-infected Huh-7.5 cells. As to the kind of experiment: Intracellular distribution and quantity of neutral lipids (Bodipy 493/503). The class given is cell-based, human. The conditions noted are these: 20 μM; 48 h; HCV-infected Huh-7.5. The source says: Figure 7 GA-Hecate effect on lipid droplets. (A) Pattern of lipid droplet distribution on treated and non-treated HCV-infected Huh-7.5 cells and the lipid droplets relative quantification. Blue: DAPI staining nuclei; Green: lipid droplets stained by Bodipy 493/503; Red: HCV NS5A represented by Alexa fluor-594. (B) Light Scattering Dynamic showing synthetic unilamellar vesicle size with lipid droplet constitution after treatment with the following: I. Water (negative control of size change); II. Triton-X 100 (positive control of size change); III. Hecate; IV. GA-Hecate.
To evaluate the GA-Hecate effect on the intracellular neutral lipid distribution, the GA-Hecate-treated cells at maximum non-cytotoxic concentration (20 μM) were evaluated 48 h post-treatment. For this purpose, 2 × 10^4 Huh-7.5 cells that were infected with HCVcc were seeded in a 24-well plate 24 h […] the treatment. On the following day, GA-Hecate or water (peptide diluent) were added in the plate and incubated for 48 h. […] To quantify the intracellular lipid content, two - four photos/well were performed and the fluorescence intensity was measured by ImageJ software. Bodipy fluorescence was normalized with DAPI fluorescence.

In experiment [2] the test system is HCV subgenomic replicon SGR-Feo-JFH-1 (genotype 2a). As to the kind of experiment: HCV subgenomic replicon replication, luciferase assay (genotype 2a). The class given is cell-based, hepatitis C virus. An excerpt: Figure 2 Hecate and its derivative-peptide effects on subgenomic HCV genotype 2a replication and hepatotoxicity. (A) Hecate. (B) Lys- Hecate. (C) GA-Hecate. (D) GA2-Hecate. (E) Acetyl-Hecate. (F) Glu-Hecate. Luciferase assays report HCV replication and MTT assays report the viability of Huh-7.5 cells harboring SGR-JFH-1 Feo under peptide treatment. Water was used as a negative control of virus replication inhibition and cell death (Control (−)), and Cyclosporine A was used as a positive control for virus replication inhibition (Control (+)). Red dotted lines represent the arbitrary threshold of 80% cell viability, and blue dotted lines represent the maximum inhibition presented by Hecate at the maximum safe concentration. Bars represent triplicates of the three independent assays. ***P < 0.01 vs control (−).
Cell lines harboring subgenomic or genomic replicons were seeded at 5 × 10^3 cells /well on 96-well plates and the compounds were added 24 h post-seeding, in a concentration range between 2.5–20 μM. After 48 h of treatment, the cells were disrupted with 30 μL of passive lysis buffer (Promega, Madison, WI, USA), and luciferase substrate (Promega, Madison, WI, USA) was automatically added to each sample. Luciferase activity was measured using a luminometer (FLUOstar Omega/BMG LABTECH, Offenburg, BW, DE). The same assays were performed in Huh-7.5 cell lines harboring SGR-JFH1 Feo, S52/SG-neo or FL-J6/JFH-50C19Rluc2AUbi. Cyclosporine A (Sigma-Aldrich) at 1 μM was used as positive control of viral replication inhibition and dH2O as negative control.
GA-Hecate toxicity and viral inhibition profile in 24, 48 and 72h post-treatment in […]
GA-Hecate toxicity and viral inhibition capacity were evaluated at 24, 48 and 72h post-treatment. Tested concentrations were 1.25; 2.5; 5; 10; 20; and 40 µM. At the end of every incubation, cells were stained using MTT as previously described. Similarly, at every time point, treated cells were lysed using PLB and summited to Luminescence analysis as previously described. […]
A general note: In antiviral work, replicon cells carry a viral genome segment that copies itself.

In experiment [3] the test system is HCVcc FL-J6/JFH-50C19Rluc2AUbi (genotype 2a). As to the kind of experiment: HCVcc replication (full-length replicon, Renilla luciferase / protein). The experiment is classed as cell-based, hepatitis C virus. The conditions noted are these: 20 μM; 48 h; viral RNA (luciferase) and protein levels. The source says:
Figure 4 GA-Hecate effect on HCVcc replication. (A) HCV RNA expression measured by the Renilla luciferase reporter gene. (B) HCV non-structural (NS5A) protein expression. GAPDH was used as an endogenous control. Water was used as a negative control of virus replication inhibition (Control (−)), and cyclosporine A was used as a positive control of virus replication inhibition (Control (+)). Bars represent triplicate samples of three independent assays. RLU - Relative light units. ***P < 0.001 vs Control (−); F = 273.2, df (between columns) = 5.
Cell lines harboring subgenomic or genomic replicons were seeded at 5 × 10^3 cells /well on 96-well plates and the compounds were added 24 h post-seeding, in a concentration range between 2.5–20 μM. […] Luciferase activity was measured using a luminometer (FLUOstar Omega/BMG LABTECH, Offenburg, BW, DE). […]
HCV (FL J6/JFH) infected cells were used to evaluate virus protein expression after peptide treatment. […] Total protein was quantified using a BCA assay (Thermo-Scientific) following the manufacturer’s instructions. […] Finally, the membrane was incubated for 1 minute with Pierce ECL Western Blotting Substrate (Thermo-Scientific-Pierce, Rockford, IL, USA), and the luminescence intensity was captured on a Chemi-Doc System (Bio-Rad, Amadora, PT). […]

Consider `CC(C)C[C@H](NC(=O)[C@H](C)NC(=O)[C@H](CCCCN)NC(=O)[C@H](CCCCN)NC(=O)[C@H](CC(C)C)NC(=O)[C@H](C)NC(=O)[C@H](CCCCN)NC(=O)[C@H](CCCCN)NC(=O)[C@H](CC(C)C)NC(=O)[C@H](CCCCN)NC(=O)[C@H](CCCCN)NC(=O)[C@H](CC(C)C)NC(=O)[C@H](C)NC(=O)[C@H](CCCCN)NC(=O)[C@H](CCCCN)NC(=O)[C@H](CC(C)C)NC(=O)[C@H](C)NC(=O)[C@H](CCCCN)NC(=O)[C@H](CC(C)C)NC(=O)[C@H](C)NC(=O)[C@H](CC(C)C)NC(=O)[C@H](C)NC(=O)[C@H](Cc1ccccc1)NC(=O)c1cc(O)c(O)c(O)c1)C(N)=O` [GA-Hecate] (Galloyl-FALALKALKKALKKLKKALKKAL-NH2), for which the “effect on lipid droplets distribution and quantity” value in experiment [1] is “altered the lipid droplets distribution and reduced its quantity”. Further, the “inhibition of viral replication” value in experiment [2] (1.25 µM, 72 h) is reported as “about 50%”. The “SI (selectivity index), ratio CC50/EC50” value in experiment [2] (48 h, genotype 2a replicon) came to 3.13. For the same compound, the “SI 72 h post-treatment” value in experiment [2] (72 h) stood at 5. The pEC50 in experiment [2] (Huh-7.5 harbouring SGR-Feo-JFH-1 genotype 2a, 48 h treatment, 2.5-20 μM, luciferase, triplicate in three independent assays, read-out: EC50 (50% effective concentration for HCV)) is 4.95; in experiment [2] (SGR-Feo JFH-1, 72 h, 1.25-40 µM, read-out: EC50 72 h post-treatment (IC50 in the supplement)) it was 5.42. Further, in experiment [2] (genotype 2a replicon, 48 h, at each peptide's maximum safe concentration (Hecate 10 μM; Lys-, Glu-, Acetyl-Hecate 5 μM)), the “inhibition of HCV replication at the maximum safe concentration” value was “approximately 80%”. In experiment [3], the “inhibition of HCVcc replication” value is “approximately 85%”.
